Source: patent US20230346961A1, “GLP-1 AND GIP RECEPTOR CO-AGONISTS” (Novo Nordisk A/S, priority 2020, published 2023)
Starred links: 1 amine or outer side, 2 acyl side, 3 side chain; linkers in the order of their positions; H or OH if unused. Non-standard residues stand in square brackets, D forms with d. Residues, ends and D or L forms follow the SMILES beside them. Groups on a side chain read outwards from the residue. *: point of attachment. C20 diacid = O=C(O)CCCCCCCCCCCCCCCCCCC(=O)*; γGlu = O=C(O)[C@H](CCC(=O)[*:2])N[*:1]; εLys = N[C@@H](CCCCN[*:1])C(=O)[*:2]; Trx = NC[C@H]1CC[C@H](C(=O)O)CC1; AEEA = NCCOCCOCC(=O)O; Aib = CC(C)(N)C(=O)O

Key:
[1] = molecular target: T1, mouse GIP receptor (Mus musculus, UniProt Q0P543); assay: cell-based
T1 sequence (Q0P543 19-460): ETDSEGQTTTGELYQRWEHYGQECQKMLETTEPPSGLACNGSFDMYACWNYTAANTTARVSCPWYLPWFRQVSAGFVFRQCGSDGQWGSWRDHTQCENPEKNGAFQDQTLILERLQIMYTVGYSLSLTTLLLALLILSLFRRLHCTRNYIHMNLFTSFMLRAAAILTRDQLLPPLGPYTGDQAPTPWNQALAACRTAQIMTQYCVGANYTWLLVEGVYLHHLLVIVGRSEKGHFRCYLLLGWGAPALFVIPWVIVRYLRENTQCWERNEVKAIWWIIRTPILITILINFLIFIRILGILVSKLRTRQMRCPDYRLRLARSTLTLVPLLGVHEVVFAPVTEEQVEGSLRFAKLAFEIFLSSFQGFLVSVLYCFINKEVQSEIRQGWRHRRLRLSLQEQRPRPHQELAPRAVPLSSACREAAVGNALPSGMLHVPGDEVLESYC
Description: (§1) The in vitro functional potency is the measure of target receptor activation in a whole cell assay.
(§2) In vitro functional potency was determined by measuring the response of the target receptor in a reporter gene assay in individual cell lines. […] When the respective receptor is activated, it results in the production of cAMP, which in turn results in expression of the luciferase protein. When assay incubation is completed, luciferase substrate (luciferin) is added resulting in the enzymatic conversion of luciferin to oxyluciferin and producing bioluminescence. The luminescence is measured as the readout for the assay.
(§3) The cells lines used in these assays were BHK cells with BHKTS13 as a parent cell line. The cell lines were derived from a clone containing the CRE luciferase element and were established by further transfection with the respective receptor to obtain the relevant cell line.
(§4) The cells were cultured at 37° C. with 5% CO2 in Cell Culture Medium. They were aliquoted and stored in liquid nitrogen. The cells were kept in continuous culture and were seeded out the day before each assay.
(§5) GLP-1R and GcgR Cell Culture Medium consisted of DMEM medium with 10% FBS, 500 μg/mL G418, and 300 μg/mL hygromycin. GIPR Cell Culture Medium consisted of DMEM medium with 10% FBS, 400 μg/mL G418, and 300 μg/mL hygromycin. Assay Buffer consisted of DMEM w/o phenol red, 10 mM Hepes, 1×Glutamax, 1% ovalbumin, and 0.1% Pluronic F-68 with the addition of HSA at twice the final assay concentration.
(§6) • 1) Cells were plated at 5000 cells/well and incubated overnight in the assay plate. • 2) Cells were washed once in DPBS. • 3) Stocks of the test compounds and reference compounds in concentrations ranging from 100-300 μM were diluted 1:150 in Assay Buffer. Compounds were then diluted 1:10 in column 1 of a 96 deep well dilution plate and then carried across the row creating a 3.5 fold, 12 point dilution curve. • 4) Assay Buffer (50 μl aliquot) with or without HSA was added to each well in the assay plate. • 5) A 50 μl aliquot of compound or blank was transferred from the dilution plate to the assay plate containing the Assay Buffer with or without HSA. • 6) The assay plate was incubated for 3 h in a 5% CO2 incubator at 37° C. 7) The cells were washed once with DPBS. • 8) A 100 μl aliquot of DPBS was added to each well of the assay plate. • 9) A 100 μl aliquot of steadylite plus reagent (light sensitive) was added to each well of the assay plate. • 10) Each assay plate was covered with aluminum foil to protect it from light and shaken at 250 RPM for 30 min at room temperature. • 11) Each assay plate was read in a microtiter plate reader.
(§7) The data from the microtiter plate reader was first regressed in an Excel in order to calculate the x-axis, log scale concentrations based on the individual test compound's stock concentration and the dilutions of the assay. […] The software performs a non-linear regression (log(agonist) vs response). A minimum of two replicates was measured for each sample. The reported values are averages of the replicates.

[2] = molecular target: human GLP-1 receptor (Homo sapiens, UniProt P43220); assay: cell-based; details: hGLP-1R
[3] = molecular target: T2, mouse GLP-1 receptor (Mus musculus, UniProt O35659)
T2 sequence (O35659 22-463): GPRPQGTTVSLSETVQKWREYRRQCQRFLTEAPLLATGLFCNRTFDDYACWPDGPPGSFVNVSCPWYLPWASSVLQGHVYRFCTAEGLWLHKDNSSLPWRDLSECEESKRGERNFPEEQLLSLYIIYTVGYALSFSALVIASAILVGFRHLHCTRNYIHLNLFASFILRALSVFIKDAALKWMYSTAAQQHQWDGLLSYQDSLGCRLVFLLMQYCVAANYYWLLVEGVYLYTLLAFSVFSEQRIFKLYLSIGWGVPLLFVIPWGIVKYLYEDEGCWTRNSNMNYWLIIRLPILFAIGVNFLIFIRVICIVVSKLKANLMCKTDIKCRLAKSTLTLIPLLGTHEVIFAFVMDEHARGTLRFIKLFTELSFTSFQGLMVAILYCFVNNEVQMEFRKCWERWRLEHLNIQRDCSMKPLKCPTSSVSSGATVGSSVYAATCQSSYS
Description: as §1, §2, §3, §4, §5, §6, §7

Chain of human GLP-1 receptor (P43220 24-463): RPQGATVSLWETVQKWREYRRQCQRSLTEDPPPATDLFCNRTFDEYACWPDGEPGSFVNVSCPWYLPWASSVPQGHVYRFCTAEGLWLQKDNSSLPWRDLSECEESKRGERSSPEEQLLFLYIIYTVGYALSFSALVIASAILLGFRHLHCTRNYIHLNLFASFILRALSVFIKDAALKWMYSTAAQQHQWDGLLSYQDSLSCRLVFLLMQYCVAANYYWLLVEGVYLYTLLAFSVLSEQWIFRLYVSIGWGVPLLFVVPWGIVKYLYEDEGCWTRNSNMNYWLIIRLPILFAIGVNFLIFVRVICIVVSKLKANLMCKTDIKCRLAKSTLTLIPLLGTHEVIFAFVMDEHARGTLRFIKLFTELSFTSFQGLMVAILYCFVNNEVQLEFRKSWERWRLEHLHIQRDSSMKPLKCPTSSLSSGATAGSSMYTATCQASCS

Structure (SMILES) | EC50 [1] [nM] | EC50 ([2]; CRE Luc 0% HSA EC50, 0% HSA) [nM] | EC50 ([2]; CRE Luc 1% HSA EC50, 1% HSA) [nM] | EC50 [3] [nM]
CC[C@H](C)[C@H](NC(=O)[C@H](CO)NC(=O)[C@H](Cc1ccc(O)cc1)NC(=O)[C@H](CC(=O)O)NC(=O)[C@H](CO)NC(=O)[C@@H](NC(=O)[C@H](Cc1ccccc1)NC(=O)[C@@H](NC(=O)CNC(=O)[C@H](CCC(=O)O)NC(=O)C(C)(C)NC(=O)[C@@H](N)Cc1ccc(O)cc1)[C@@H](C)O)[C@@H](C)O)C(=O)N[C@@H](Cc1ccc(O)cc1)C(=O)N[C@@H](CC(C)C)C(=O)N[C@@H](CCC(=O)O)C(=O)N[C@@H](CCC(=O)O)C(=O)N[C@@H](CCC(N)=O)C(=O)N[C@@H](C)C(=O)N[C@@H](C)C(=O)NC(C)(C)C(=O)N[C@@H](CCCCNC(=O)COCCOCCNC(=O)COCCOCCNC(=O)CC[C@H](NC(=O)[C@H]1CC[C@H](CNC(=O)CCCCCCCCCCCCCCCCCCC(=O)O)CC1)C(=O)O)C(=O)N[C@@H](Cc1ccccc1)C(=O)N[C@H](C(=O)N[C@@H](CC(N)=O)C(=O)N[C@@H](Cc1c[nH]c2ccccc12)C(=O)N[C@@H](CC(C)C)C(=O)N[C@@H](CC(C)C)C(=O)N[C@@H](C)C(=O)NCC(=O)NCC(=O)N1CCC[C@H]1C(=O)N[C@@H](CO)C(=O)N[C@@H](CO)C(=O)NCC(=O)N[C@@H](C)C(=O)N1CCC[C@H]1C(=O)N1CCC[C@H]1C(=O)N1CCC[C@H]1C(=O)N[C@@H](CO)C(N)=O)C(C)C [Compound 25] (H-Y[Aib]EGTFTSDYSIYLEEQAA[Aib]K([AEEA-AEEA-γGlu-Trx-C20 diacid])FVNWLLAGGPSSGAPPPS-NH2; N-terminus assumed) | 0.34 | 0.0048 | 0.602 | 0.0029
CC[C@H](C)[C@H](NC(=O)[C@H](CO)NC(=O)[C@H](Cc1ccc(O)cc1)NC(=O)[C@H](CC(=O)O)NC(=O)[C@H](CO)NC(=O)[C@@H](NC(=O)[C@H](Cc1ccccc1)NC(=O)[C@@H](NC(=O)CNC(=O)[C@H](CCC(=O)O)NC(=O)C(C)(C)NC(=O)[C@@H](N)Cc1ccc(O)cc1)[C@@H](C)O)[C@@H](C)O)C(=O)N[C@@H](Cc1ccc(O)cc1)C(=O)N[C@@H](CC(C)C)C(=O)N[C@@H](CCC(=O)O)C(=O)N[C@@H](CCC(=O)O)C(=O)N[C@@H](CCC(N)=O)C(=O)N[C@@H](C)C(=O)N[C@@H](C)C(=O)NC(C)(C)C(=O)N[C@@H](CCCCNC(=O)COCCOCCNC(=O)COCCOCCNC(=O)CC[C@H](NC(=O)CCCCCCCCCCCCCCCCCCC(=O)O)C(=O)O)C(=O)N[C@@H](Cc1ccccc1)C(=O)N[C@H](C(=O)N[C@@H](CC(N)=O)C(=O)N[C@@H](Cc1c[nH]c2ccccc12)C(=O)N[C@@H](CC(C)C)C(=O)N[C@@H](CC(C)C)C(=O)N[C@@H](C)C(=O)NCC(=O)NCC(=O)N1CCC[C@H]1C(=O)N[C@@H](CO)C(=O)N[C@@H](CO)C(=O)NCC(=O)N[C@@H](C)C(=O)N1CCC[C@H]1C(=O)N1CCC[C@H]1C(=O)N1CCC[C@H]1C(=O)N[C@@H](CO)C(N)=O)C(C)C [Compound 26] (H-Y[Aib]EGTFTSDYSIYLEEQAA[Aib]K([AEEA-AEEA-γGlu-C20 diacid])FVNWLLAGGPSSGAPPPS-NH2; N-terminus assumed) | 0.776 | 0.0047 | 0.37 | 0.0028
CC[C@H](C)[C@H](NC(=O)[C@H](CO)NC(=O)[C@H](Cc1ccc(O)cc1)NC(=O)[C@H](CC(=O)O)NC(=O)[C@H](CO)NC(=O)[C@@H](NC(=O)[C@H](Cc1ccccc1)NC(=O)[C@@H](NC(=O)CNC(=O)[C@H](CCC(=O)O)NC(=O)C(C)(C)NC(=O)[C@@H](N)Cc1ccc(O)cc1)[C@@H](C)O)[C@@H](C)O)C(=O)N[C@@H](Cc1ccc(O)cc1)C(=O)N[C@@H](CC(C)C)C(=O)N[C@@H](CCC(=O)O)C(=O)N[C@@H](CCCCN)C(=O)N[C@@H](CCCCNC(=O)COCCOCCNC(=O)COCCOCCNC(=O)CC[C@H](NC(=O)CCCCCCCCCCCCCCCCCCC(=O)O)C(=O)O)C(=O)N[C@@H](C)C(=O)N[C@@H](C)C(=O)NC(C)(C)C(=O)N[C@@H](CCC(=O)O)C(=O)N[C@@H](Cc1ccccc1)C(=O)N[C@H](C(=O)N[C@@H](CC(N)=O)C(=O)N[C@@H](Cc1c[nH]c2ccccc12)C(=O)N[C@@H](CC(C)C)C(=O)N[C@@H](CC(C)C)C(=O)N[C@@H](C)C(=O)NCC(=O)NCC(=O)N1CCC[C@H]1C(=O)N[C@@H](CO)C(=O)N[C@@H](CO)C(=O)NCC(=O)N[C@@H](C)C(=O)N1CCC[C@H]1C(=O)N1CCC[C@H]1C(=O)N1CCC[C@H]1C(=O)N[C@@H](CO)C(N)=O)C(C)C [Compound 30] (H-Y[Aib]EGTFTSDYSIYLEKK([AEEA-AEEA-γGlu-C20 diacid])AA[Aib]EFVNWLLAGGPSSGAPPPS-NH2; N-terminus assumed) | 0.201 | 0.0084 | 0.353 | 0.0019
CC[C@H](C)[C@H](NC(=O)[C@H](CO)NC(=O)[C@H](Cc1ccc(O)cc1)NC(=O)[C@H](CC(=O)O)NC(=O)[C@H](CO)NC(=O)[C@@H](NC(=O)[C@H](Cc1ccccc1)NC(=O)[C@@H](NC(=O)CNC(=O)[C@H](CCC(=O)O)NC(=O)C(C)(C)NC(=O)[C@@H](N)Cc1ccc(O)cc1)[C@@H](C)O)[C@@H](C)O)C(=O)N[C@@H](Cc1ccc(O)cc1)C(=O)N[C@@H](CC(C)C)C(=O)N[C@@H](CCC(=O)O)C(=O)N[C@@H](CCCCN)C(=O)N[C@@H](CCC(N)=O)C(=O)N[C@@H](C)C(=O)N[C@@H](C)C(=O)NC(C)(C)C(=O)N[C@@H](CCCCNC(=O)COCCOCCNC(=O)COCCOCCNC(=O)CC[C@H](NC(=O)[C@H]1CC[C@H](CNC(=O)CCCCCCCCCCCCCCCCCCC(=O)O)CC1)C(=O)O)C(=O)N[C@@H](Cc1ccccc1)C(=O)N[C@H](C(=O)N[C@@H](CC(N)=O)C(=O)N[C@@H](Cc1c[nH]c2ccccc12)C(=O)N[C@@H](CC(C)C)C(=O)N[C@@H](CC(C)C)C(=O)N[C@@H](C)C(=O)NCC(=O)NCC(=O)N1CCC[C@H]1C(=O)N[C@@H](CO)C(=O)N[C@@H](CO)C(=O)NCC(=O)N[C@@H](C)C(N)=O)C(C)C [Compound 32] (H-Y[Aib]EGTFTSDYSIYLEKQAA[Aib]K([AEEA-AEEA-γGlu-Trx-C20 diacid])FVNWLLAGGPSSGA-NH2; N-terminus assumed) | 0.0802 | 0.0117 | 0.221 | 0.0025
CC[C@H](C)[C@H](NC(=O)[C@H](CO)NC(=O)[C@H](Cc1ccc(O)cc1)NC(=O)[C@H](CC(=O)O)NC(=O)[C@H](CO)NC(=O)[C@@H](NC(=O)[C@H](Cc1ccccc1)NC(=O)[C@@H](NC(=O)CNC(=O)[C@H](CCC(=O)O)NC(=O)C(C)(C)NC(=O)[C@@H](N)Cc1ccc(O)cc1)[C@@H](C)O)[C@@H](C)O)C(=O)N[C@@H](Cc1ccc(O)cc1)C(=O)N[C@@H](CC(C)C)C(=O)N[C@@H](CCC(=O)O)C(=O)N[C@@H](CCCCNC(=O)[C@@H](N)CCCCNC(=O)[C@@H](N)CCCCNC(=O)CC[C@H](NC(=O)[C@H]1CC[C@H](CNC(=O)CCCCCCCCCCCCCCCCCCC(=O)O)CC1)C(=O)O)C(=O)N[C@@H](CCC(N)=O)C(=O)N[C@@H](C)C(=O)N[C@@H](C)C(=O)NC(C)(C)C(=O)N[C@@H](CCC(=O)O)C(=O)N[C@@H](Cc1ccccc1)C(=O)N[C@H](C(=O)N[C@@H](CCC(N)=O)C(=O)N[C@@H](Cc1c[nH]c2ccccc12)C(=O)N[C@@H](CC(C)C)C(=O)N[C@@H](CC(C)C)C(=O)N[C@@H](CCC(=O)O)C(=O)NCC(=O)NCC(=O)N1CCC[C@H]1C(=O)N[C@@H](CO)C(=O)N[C@@H](CO)C(=O)NCC(=O)N[C@@H](C)C(N)=O)C(C)C [Compound 33] (H-Y[Aib]EGTFTSDYSIYLEK([εLys-εLys-γGlu-Trx-C20 diacid])QAA[Aib]EFVQWLLEGGPSSGA-NH2; N-terminus assumed) | 0.0311 | 0.0059 | 0.741 | 0.004
